The source of these data is patent US7816558B2, “Triarylcarboxylic acid derivative” (Astellas Pharma Inc., priority 2005, dated 2010).

Molecules are shown by their SMILES.

In experiment [1] the test system is serum uric acid level. The experiment is described as follows: Hypouricemic effect (rat oxonate-induced high uric acid model), test (A). The experiment is classed as in vivo. The conditions noted are these: Wistar rats, potassium oxonate 250 mg/kg s.c., 2 hours after oral administration, normal group 100% inhibition, control group 0%. The procedure: (A) For evaluating the serum uric acid level depressing capability of the compounds of the present invention, the following test was carried out using an oxonate-induced high uric acid model.
A 0.5% methyl cellulose liquid (normal group, control group) or a test compound suspended in 0.5% methyl cellulose (compound-administered group) was orally administered to 5 or 6-week-age male Wistar rats. One hour before blood collection, saline (normal group), or 250 mg/kg of potassium oxonate suspended in saline (control group, compound-administered group) was subcutaneously administered to the rats. 2 hours or 18 hours after the compound or methyl cellulose liquid administration, the blood was collected from each rat. The serum was separated from the collected blood, and the serum uric acid level was measured according to a phosphorus tungstate method (Am. J. Clin. Pathol., 28, 152-, 1957).
This test confirmed the excellent hypouricemic effect of the compounds of the present invention. For example, ED50 of the compound of Example 136 was 0.2 mg/kg in 2 hours after oral administration (for this, the serum uric acid level of the normal group was defined as 100% inhibition and the serum uric acid level of the control group was as 0% inhibition).

Experiment [2] concerns the target T1, xanthine oxidase (derived from butter milk, by Sigma) (Bos taurus, UniProt P80457).
T1 construct: xanthine oxidase (derived from butter milk, by Sigma); purchased Sigma; host or cells: butter milk (natural source)
In words: Xanthine oxidase inhibiting activity. It counts as biochemical. The conditions noted are these: pterin 5 μM as substrate, isoxanthopterin light emission, room temperature; read-out: IC50 (concentration of the test compound for 50% inhibition). As to the method:
A test compound was dissolved in DMSO (by Nacalai) to have a concentration of 10 mM, and then just before use, its concentration was adjusted to a desired one.
The xanthine oxidase inhibitory activity of the compound of the present invention was evaluated according to a partly modified method of a method described in a reference “Free Radic. Biol. Med. 6, 607-615, 1992”. Concretely, xanthine oxidase (derived from butter milk, by Sigma) was mixed with 50 mM phosphate buffer to be 0.03 units/ml, and applied to a 96-well plate in an amount of […]. The test compound diluted to have a final concentration was added to the plate in an amount of 2 μl/well, and processed at room temperature for 20 minutes. Pterin (by Sigma) was added to it to have a final concentration of 5 μM in an amount of 50 μl/well, and reacted at room temperature for 10 minutes. Under a condition of excitation at 345 nm and emission at […] (pterin is oxidized by xanthine oxidase to give isoxanthopterin, and under the condition it emits light), the sample was analyzed using a microplate reader sapphire (by Tacan).
The light emission by isoxanthopterin in the presence or absence of xanthine oxidase was defined as 0% inhibition and 100% inhibition, respectively, and the concentration (IC50) of the test compound for 50% inhibition was computed.

T1 sequence (P80457 whole entry): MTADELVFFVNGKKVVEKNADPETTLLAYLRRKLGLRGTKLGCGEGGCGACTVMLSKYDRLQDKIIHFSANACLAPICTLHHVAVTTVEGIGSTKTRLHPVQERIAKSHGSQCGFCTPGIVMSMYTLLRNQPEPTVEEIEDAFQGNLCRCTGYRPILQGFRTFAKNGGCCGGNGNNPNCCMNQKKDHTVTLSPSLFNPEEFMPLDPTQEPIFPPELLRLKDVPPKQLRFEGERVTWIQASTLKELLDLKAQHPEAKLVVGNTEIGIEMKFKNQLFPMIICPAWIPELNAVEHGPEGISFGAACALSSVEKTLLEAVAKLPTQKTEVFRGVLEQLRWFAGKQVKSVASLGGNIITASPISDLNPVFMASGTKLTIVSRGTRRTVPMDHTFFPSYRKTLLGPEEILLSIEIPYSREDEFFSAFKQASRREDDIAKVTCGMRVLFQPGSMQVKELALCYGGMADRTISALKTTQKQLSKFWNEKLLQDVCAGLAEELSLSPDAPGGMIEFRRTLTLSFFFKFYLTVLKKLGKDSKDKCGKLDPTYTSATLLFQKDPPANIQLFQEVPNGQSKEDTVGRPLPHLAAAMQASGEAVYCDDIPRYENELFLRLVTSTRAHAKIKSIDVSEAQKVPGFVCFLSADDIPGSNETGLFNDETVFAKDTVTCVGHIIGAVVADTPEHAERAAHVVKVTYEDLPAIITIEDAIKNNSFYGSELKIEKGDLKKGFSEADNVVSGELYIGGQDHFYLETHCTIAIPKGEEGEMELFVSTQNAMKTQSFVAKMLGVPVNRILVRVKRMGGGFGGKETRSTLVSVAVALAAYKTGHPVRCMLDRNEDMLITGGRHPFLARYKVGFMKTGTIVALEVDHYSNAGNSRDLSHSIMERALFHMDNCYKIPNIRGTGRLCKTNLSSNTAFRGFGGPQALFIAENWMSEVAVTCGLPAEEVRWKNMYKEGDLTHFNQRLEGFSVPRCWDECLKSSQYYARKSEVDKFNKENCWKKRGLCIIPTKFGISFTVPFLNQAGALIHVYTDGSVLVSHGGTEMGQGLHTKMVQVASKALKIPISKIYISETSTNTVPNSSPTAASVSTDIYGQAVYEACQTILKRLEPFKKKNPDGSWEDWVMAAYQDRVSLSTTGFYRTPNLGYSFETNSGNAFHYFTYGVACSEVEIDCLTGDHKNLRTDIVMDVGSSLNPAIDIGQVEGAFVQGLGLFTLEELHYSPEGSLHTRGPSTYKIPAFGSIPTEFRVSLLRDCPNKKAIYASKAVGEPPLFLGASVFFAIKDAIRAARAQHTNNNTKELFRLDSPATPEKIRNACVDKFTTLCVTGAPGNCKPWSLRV

As a reminder, the ED50 is the dose that gives a 50% effect, or the effect in half of the subjects. Take `N#Cc1cc(-c2cc(C(=O)[O-])ccn2)ccc1-c1ccccc1.[Na+]` [Example 1, sodium 2-(2-cyanobiphenyl-4-yl)isonicotinate]: the median effective dose (ED50) in experiment [1] is < 1 mg/kg.

In the case of `N#Cc1cc(-c2ccc(C(=O)O)s2)ccc1-c1ccccc1` [Example 68, 5-(2-cyanobiphenyl-4-yl)thiophene-2-carboxylic acid], the ED50 in experiment [1] was < 1 mg/kg.

In the case of `CC(C)(C)c1ccc(-c2ccc(-c3ccc(C(=O)O)s3)cc2C#N)cc1` [Example 94], the IC50 in experiment [2] stood at 0.5 nM.

Take `Cc1nc(-c2ccc(-c3ccccc3)c(C#N)c2)sc1C(=O)O` [Example 123, 2-(2-cyanobiphenyl-4-yl)-4-methyl-1,3-thiazole-5-carboxylic acid]: the ED50 in experiment [1] is < 1 mg/kg.

Regarding `Cc1ccc(-c2ccc(-c3nc(C)c(C(=O)O)s3)cc2C#N)cc1` [Example 124, 2-(2-cyano-4′-methylbiphenyl-4-yl)-4-methyl-1,3-thiazole-5-carboxylic acid], in experiment [1], the ED50 is < 1 mg/kg.

With `COc1ccc(-c2ccc(-c3nc(C)c(C(=O)O)s3)cc2C#N)cc1` [Example 127, 2-(2-cyano-4′-methoxybiphenyl-4-yl)-4-methyl-1,3-thiazole-5-carboxylic acid], the ED50 in experiment [1] is < 1 mg/kg.

`Cc1cccc(-c2ccc(-c3nc(C)c(C(=O)O)s3)cc2C#N)c1` [Example 129, 2-(2-cyano-3′-methylbiphenyl-4-yl)-4-methyl-1,3-thiazole-5-carboxylic acid]: the IC50 in experiment [2] is 0.9 nM.

The molecule `N#Cc1cc(-c2ncc(C(=O)O)s2)ccc1-c1ccccc1` [Example 136, 2-(2-cyanobiphenyl-4-yl)-1,3-thiazole-5-carboxylic acid] displayed an ED50 in experiment [1] of 0.2 mg/kg.

With `N#Cc1cc(-n2cc(C(=O)O)cn2)ccc1-c1ccccc1` [Example 137, 1-(2-cyanobiphenyl-4-yl)-1H-pyrazole-4-carboxylic acid], in experiment [1], the ED50 was < 1 mg/kg.

For `COc1ccc(-c2ccc(-n3cc(C(=O)O)cn3)cc2C#N)cc1` [Example 140, 1-(2-cyano-4′-methoxybiphenyl-4-yl)-1H-pyrazole-4-carboxylic acid], in experiment [1], the ED50 was < 1 mg/kg. Also, the IC50 in experiment [2] stood at 1.4 nM.

Consider `Cn1nc(-c2ccc(-c3ccccc3)c(C#N)c2)cc1C(=O)O` [Example 146, 3-(2-cyanobiphenyl-4-yl)-1-methyl-1H-pyrazole-5-carboxylic acid], for which the ED50 in experiment [1] is < 1 mg/kg.
